Test results: US20240101576A1, “HETEROCYCLIC INHIBITORS OF EGFR AND/OR HER2, FOR USE IN THE TREATMENT OF CANCER” (Scorpion Therapeutics, Inc., priority 2020, published 2024)

How the values were obtained:
Type in all cases: cell-based
EGFR WT (Ba/F3 cells) = molecular target: T1, EGFR WT (Ba/F3 cells) (Homo sapiens, UniProt P00533); assay: Inhibitor activity on EGFR-dependent cell growth (CellTiter-Glo, 72 h), Ba/F3 EGFR WT; settings: read-out: BaF3 WT IC50
T1 construct: expressed in transfected cells; host or cells: Ba/F3 (murine pro-B cells), retroviral transduction, puromycin selection, maintained with EGF
Outline: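 This growth assay used Ba/F3 cells that depend on wild-type EGFR and are kept in EGF without IL3. Compounds were made up as 10 mM DMSO stocks and diluted 3-fold over 10 points. 120 nL went onto 600 cells/well. After 72 hours, 40 μL CellTiter-Glo was added and luminescence read on EnVision after 30 min.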

[1] = molecular target: T2, EGFR exon 20 SVD Ins D770_N771 (Ba/F3 cells) (Homo sapiens, UniProt P00533, INS770SVD); assay: Inhibitor activity on EGFR-dependent cell growth (CellTiter-Glo, 72 h), Ba/F3 EGFR exon 20 SVD Ins; settings: read-out: BaF3 SVD IC50
T2 construct: expressed in transfected cells; host or cells: Ba/F3 (murine pro-B cells), retroviral transduction, puromycin selection, IL3-independent pool
Outline: (§1)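 IC50s derive from a sigmoidal dose–response fit of CellTiter-Glo signal. The signal was normalised between […]-treated cells and cell-free medium. Ba/F3 mutant-EGFR cells, seeded at 400–800/well depending on the line, had 72 h of exposure to a 10-point, 3-fold compound series.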

[2] = molecular target: T3, EGFR exon 20 ASV Ins V769_D770 (Ba/F3 cells) (Homo sapiens, UniProt P00533, INS769ASV); assay: Inhibitor activity on EGFR-dependent cell growth (CellTiter-Glo, 72 h), Ba/F3 EGFR exon 20 ASV Ins; settings: read-out: BaF3 ASV IC50
T3 construct: expressed in transfected cells; host or cells: Ba/F3 (murine pro-B cells), retroviral transduction, puromycin selection, IL3-independent pool
Outline: as §1

[3] = molecular target: T4, EGFR exon 20 FQEA Ins A763_V764 (Ba/F3 cells) (Homo sapiens, UniProt P00533, INS763FQEA); assay: Inhibitor activity on EGFR-dependent cell growth (CellTiter-Glo, 72 h), Ba/F3 EGFR exon 20 FQEA Ins; settings: read-out: BaF3 FQEA IC50
T4 construct: expressed in transfected cells; host or cells: Ba/F3 (murine pro-B cells), retroviral transduction, puromycin selection, IL3-independent pool
Outline: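 Ba/F3 cells engineered with each EGFR variant were plated (400, 600 or 800 per well for L858R, L858R/C797S, and exon 19del/FQEA). They were exposed for 72 hours to compound serially diluted from a 10 mM DMSO stock. Remaining viable cells were quantified by CellTiter-Glo, and IC50 was curve-fitted.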

T3 sequence (P00533 with tags, fused parts or gaps INS769ASV): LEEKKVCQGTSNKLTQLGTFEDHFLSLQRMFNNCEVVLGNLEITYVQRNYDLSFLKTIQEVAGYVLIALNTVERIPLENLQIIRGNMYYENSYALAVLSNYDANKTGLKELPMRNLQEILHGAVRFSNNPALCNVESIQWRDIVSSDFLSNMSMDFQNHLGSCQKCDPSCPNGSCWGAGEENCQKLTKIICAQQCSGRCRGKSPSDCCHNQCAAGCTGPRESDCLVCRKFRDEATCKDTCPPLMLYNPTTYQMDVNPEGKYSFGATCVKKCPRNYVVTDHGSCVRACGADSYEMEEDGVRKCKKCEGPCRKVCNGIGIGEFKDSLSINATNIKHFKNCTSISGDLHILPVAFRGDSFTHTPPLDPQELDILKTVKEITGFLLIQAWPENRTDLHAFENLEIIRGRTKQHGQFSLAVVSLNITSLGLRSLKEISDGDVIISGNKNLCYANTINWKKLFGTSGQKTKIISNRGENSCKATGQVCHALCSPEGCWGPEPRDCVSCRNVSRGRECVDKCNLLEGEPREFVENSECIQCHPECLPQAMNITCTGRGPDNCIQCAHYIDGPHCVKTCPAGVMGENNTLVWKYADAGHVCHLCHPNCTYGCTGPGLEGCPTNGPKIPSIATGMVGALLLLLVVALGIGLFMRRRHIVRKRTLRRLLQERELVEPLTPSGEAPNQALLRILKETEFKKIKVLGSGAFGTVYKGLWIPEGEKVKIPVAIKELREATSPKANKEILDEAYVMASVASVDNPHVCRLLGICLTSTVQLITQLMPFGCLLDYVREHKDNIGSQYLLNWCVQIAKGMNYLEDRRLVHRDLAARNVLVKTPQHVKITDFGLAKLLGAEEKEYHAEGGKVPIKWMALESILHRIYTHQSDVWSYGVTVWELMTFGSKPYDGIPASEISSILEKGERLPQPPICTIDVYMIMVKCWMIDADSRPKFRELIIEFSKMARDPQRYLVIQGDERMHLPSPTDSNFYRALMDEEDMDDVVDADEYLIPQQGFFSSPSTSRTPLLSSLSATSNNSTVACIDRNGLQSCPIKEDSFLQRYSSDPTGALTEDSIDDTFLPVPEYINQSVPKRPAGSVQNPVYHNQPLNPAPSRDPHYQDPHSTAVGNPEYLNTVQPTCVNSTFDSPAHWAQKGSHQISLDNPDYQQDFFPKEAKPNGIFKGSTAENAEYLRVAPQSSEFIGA
T2 sequence (P00533 with tags, fused parts or gaps INS770SVD): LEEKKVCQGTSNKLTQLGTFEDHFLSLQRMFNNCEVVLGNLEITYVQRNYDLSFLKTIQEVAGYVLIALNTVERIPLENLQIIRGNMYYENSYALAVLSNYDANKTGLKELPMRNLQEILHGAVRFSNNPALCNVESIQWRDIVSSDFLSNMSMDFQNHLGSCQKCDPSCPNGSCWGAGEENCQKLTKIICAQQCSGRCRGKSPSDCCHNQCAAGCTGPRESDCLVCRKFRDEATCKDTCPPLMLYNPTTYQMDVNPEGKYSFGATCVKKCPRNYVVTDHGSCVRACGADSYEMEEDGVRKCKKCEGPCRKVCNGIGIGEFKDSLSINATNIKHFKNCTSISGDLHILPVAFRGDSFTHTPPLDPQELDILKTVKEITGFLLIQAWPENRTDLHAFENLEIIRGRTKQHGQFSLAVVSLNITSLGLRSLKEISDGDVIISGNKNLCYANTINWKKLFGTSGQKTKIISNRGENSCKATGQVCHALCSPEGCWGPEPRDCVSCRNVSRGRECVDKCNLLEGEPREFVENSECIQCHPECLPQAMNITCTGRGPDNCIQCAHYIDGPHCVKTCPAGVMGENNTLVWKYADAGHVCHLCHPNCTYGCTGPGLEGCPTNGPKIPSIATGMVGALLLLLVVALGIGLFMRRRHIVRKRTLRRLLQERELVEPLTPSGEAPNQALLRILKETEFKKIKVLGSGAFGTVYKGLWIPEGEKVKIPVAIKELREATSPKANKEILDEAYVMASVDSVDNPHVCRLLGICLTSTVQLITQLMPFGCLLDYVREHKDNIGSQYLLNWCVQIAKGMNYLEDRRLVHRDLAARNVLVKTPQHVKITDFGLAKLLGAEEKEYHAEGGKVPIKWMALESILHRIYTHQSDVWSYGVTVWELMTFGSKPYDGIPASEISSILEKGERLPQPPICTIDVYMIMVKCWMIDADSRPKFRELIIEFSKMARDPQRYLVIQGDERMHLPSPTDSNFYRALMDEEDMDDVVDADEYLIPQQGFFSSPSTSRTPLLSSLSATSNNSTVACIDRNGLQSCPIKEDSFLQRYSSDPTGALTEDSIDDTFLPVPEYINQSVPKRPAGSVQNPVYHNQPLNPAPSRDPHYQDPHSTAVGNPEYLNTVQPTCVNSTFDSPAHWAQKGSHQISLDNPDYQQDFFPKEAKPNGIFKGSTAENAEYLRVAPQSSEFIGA
T4 sequence (P00533 with tags, fused parts or gaps INS763FQEA): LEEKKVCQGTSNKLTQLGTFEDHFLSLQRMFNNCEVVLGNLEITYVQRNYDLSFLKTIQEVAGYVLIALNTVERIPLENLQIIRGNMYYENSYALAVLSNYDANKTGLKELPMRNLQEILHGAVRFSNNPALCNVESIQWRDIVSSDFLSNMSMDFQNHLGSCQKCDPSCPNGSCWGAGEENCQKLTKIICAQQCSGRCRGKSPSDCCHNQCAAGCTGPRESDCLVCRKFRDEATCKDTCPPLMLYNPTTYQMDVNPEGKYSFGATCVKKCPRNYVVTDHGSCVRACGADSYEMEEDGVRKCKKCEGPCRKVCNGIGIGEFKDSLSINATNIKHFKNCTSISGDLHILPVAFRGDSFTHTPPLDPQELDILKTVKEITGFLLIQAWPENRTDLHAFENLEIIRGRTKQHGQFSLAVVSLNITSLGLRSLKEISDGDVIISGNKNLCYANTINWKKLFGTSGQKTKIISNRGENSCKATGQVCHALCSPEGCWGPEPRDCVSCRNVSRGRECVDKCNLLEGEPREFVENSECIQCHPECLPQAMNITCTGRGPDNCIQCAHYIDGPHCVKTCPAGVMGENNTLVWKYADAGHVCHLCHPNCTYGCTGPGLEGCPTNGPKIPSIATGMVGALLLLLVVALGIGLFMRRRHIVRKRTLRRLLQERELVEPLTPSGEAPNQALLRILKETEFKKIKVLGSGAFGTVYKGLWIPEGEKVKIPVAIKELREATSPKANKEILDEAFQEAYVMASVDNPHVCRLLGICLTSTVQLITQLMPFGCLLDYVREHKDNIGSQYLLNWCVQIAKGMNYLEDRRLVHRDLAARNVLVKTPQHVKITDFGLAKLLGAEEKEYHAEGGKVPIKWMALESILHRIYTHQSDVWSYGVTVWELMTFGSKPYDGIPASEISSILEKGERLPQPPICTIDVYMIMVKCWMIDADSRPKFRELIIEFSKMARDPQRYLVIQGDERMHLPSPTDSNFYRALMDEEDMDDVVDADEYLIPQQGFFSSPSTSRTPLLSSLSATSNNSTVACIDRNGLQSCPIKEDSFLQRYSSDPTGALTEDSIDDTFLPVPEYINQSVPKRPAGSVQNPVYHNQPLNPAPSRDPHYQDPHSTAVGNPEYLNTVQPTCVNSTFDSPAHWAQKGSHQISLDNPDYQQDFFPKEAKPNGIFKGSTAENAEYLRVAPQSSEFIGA
T1 sequence (P00533 25-1210): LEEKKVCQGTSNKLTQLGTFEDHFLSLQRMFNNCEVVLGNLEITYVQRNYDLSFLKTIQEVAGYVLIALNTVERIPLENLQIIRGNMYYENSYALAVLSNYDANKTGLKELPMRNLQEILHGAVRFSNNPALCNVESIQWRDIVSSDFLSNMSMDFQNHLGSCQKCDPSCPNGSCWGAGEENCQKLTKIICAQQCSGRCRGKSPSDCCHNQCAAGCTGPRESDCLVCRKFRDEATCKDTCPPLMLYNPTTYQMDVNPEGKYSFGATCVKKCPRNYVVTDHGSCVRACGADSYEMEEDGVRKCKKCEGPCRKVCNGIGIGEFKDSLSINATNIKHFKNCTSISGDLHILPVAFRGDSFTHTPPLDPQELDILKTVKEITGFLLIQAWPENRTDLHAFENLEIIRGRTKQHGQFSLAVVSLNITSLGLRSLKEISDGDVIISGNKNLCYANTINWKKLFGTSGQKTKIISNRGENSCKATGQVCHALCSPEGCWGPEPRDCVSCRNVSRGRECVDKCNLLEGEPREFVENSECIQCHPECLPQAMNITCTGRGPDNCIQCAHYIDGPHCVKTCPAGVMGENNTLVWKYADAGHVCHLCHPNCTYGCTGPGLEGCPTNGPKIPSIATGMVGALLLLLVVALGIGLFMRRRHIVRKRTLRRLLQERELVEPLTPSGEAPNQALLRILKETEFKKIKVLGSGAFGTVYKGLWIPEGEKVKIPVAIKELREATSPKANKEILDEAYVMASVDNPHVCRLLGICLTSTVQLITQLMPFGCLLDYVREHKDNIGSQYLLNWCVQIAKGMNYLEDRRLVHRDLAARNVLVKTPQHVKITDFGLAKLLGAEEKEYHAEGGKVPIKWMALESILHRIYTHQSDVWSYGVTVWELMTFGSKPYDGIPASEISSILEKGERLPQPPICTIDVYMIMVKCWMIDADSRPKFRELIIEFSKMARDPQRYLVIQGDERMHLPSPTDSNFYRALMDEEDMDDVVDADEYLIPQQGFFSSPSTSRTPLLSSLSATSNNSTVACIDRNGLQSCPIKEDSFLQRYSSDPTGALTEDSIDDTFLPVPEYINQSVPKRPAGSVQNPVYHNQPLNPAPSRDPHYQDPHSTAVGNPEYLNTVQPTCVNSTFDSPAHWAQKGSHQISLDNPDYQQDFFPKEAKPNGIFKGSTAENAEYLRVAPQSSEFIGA

Structure (SMILES) | IC50 (EGFR WT (Ba/F3 cells)) | IC50 [1] | IC50 [2] | IC50 [3]
COc1c(Cl)cccc1Nc1c(-c2ccnc(Nc3ccc(N4CCN(C)CC4)nc3)n2)[nH]c2c1C(=O)NCC2 [compound 518, 3-[(3-chloro-2-methoxyphenyl)amino]-2-(2-{[6-(4-methylpiperazin-1-yl)pyridin-3-yl]amino}pyrimidin-4-yl)-1H,5H,6H,7H-pyrrolo[3,2-c]pyridin-4-one] | 100 to 1000 nM | < 100 nM | < 100 nM | < 100 nM
CC[C@H]1CNC(=O)c2c1[nH]c(-c1ccnc(N)n1)c2Nc1cccc(Cl)c1OC [189b] | 100 to 1000 nM | < 100 nM | < 100 nM | < 100 nM
COc1c(Cl)cccc1Nc1c(-c2ccnc3ccc(OC(C)C)nc23)[nH]c2c1C(=O)NCC2 [compound 762, 3-[(3-chloro-2-methoxyphenyl)amino]-2-(6-isopropoxy-1,5-naphthyridin-4-yl)-1H,5H,6H,7H-pyrrolo[3,2-c]pyridin-4-one] | < 100 nM | < 100 nM | < 100 nM | < 100 nM
COc1c(Cl)cccc1Nc1c(-c2ccncc2F)[nH]c2c1C(=O)NCC2CCF (stereo not shown) [Compound 473, 3-[(3-chloro-2-methoxyphenyl)amino]-7-(2-fluoroethyl)-2-(3-fluoropyridin-4-yl)-1H,5H,6H,7H-pyrrolo[3,2-c]pyridin-4-one] | > 1000 nM | 100 to 1000 nM | 100 to 1000 nM | 100 to 1000 nM
COc1c(Cl)cccc1Nc1c(-c2ccncc2F)[nH]c2c1C(=O)NC[C@@H]2CCF [compound 813] | > 1000 nM | 100 to 1000 nM | 100 to 1000 nM | 100 to 1000 nM
COc1ncc2nccc(-c3[nH]c4c(c3Nc3cccc(F)c3OC)C(=O)NCC43CC3)c2n1 [compound 379] | 100 to 1000 nM | < 100 nM | < 100 nM | < 100 nM
COc1c(F)cccc1Nc1c(-c2ccncc2)[nH]c2c1C(=O)NCC2 [compound 243] | > 1000 nM | 100 to 1000 nM | 100 to 1000 nM | 100 to 1000 nM
COc1c(F)cccc1Nc1c(-c2ccnc3cnc(OC4CC4)nc23)[nH]c2c1C(=O)NCC2 [compound 413] | < 100 nM | < 100 nM | < 100 nM | < 100 nM
COc1ccc2nccc(-c3[nH]c4c(c3Nc3cccc(Cl)c3OC)C(=O)NCC43CCC3)c2n1 [Compound 760, 3′-((3-chloro-2-methoxyphenyl)amino)-2′-(6-methoxy-1,5-naphthyridin-4-yl)-5′,6′-dihydrospiro[cyclobutane-1,7′-pyrrolo[3,2-c]pyridin]-4′(1′H)-one] | < 100 nM | < 100 nM | < 100 nM | < 100 nM
COc1ccc2nccc(-c3[nH]c4c(c3Nc3cccc(Cl)c3OC)C(=O)NC[C@@H]4C)c2n1 [310b] | < 100 nM | < 100 nM | < 100 nM | < 100 nM
COc1c(Cl)cccc1Nc1c(-c2ccnc3ccc(OC4CC4)nc23)[nH]c2c1C(=O)NC[C@@H]2C [Compound 770, (S)-3-((3-chloro-2-methoxyphenyl)amino)-2-(6-cyclopropoxy-1,5-naphthyridin-4-yl)-7-methyl-1,5,6,7-tetrahydro-4H-pyrrolo[3,2-c]pyridin-4-one] | < 100 nM | < 100 nM | < 100 nM | < 100 nM
COc1c(Cl)cccc1Nc1c(-c2ccnc(NC3CCOCC3)n2)[nH]c2c1C(=O)NCC2 [compound 708, 3-((3-chloro-2-methoxyphenyl)amino)-2-(2-((tetrahydro-2H-pyran-4-yl)amino)pyrimidin-4-yl)-1,5,6,7-tetrahydro-4H-pyrrolo[3,2-c]pyridin-4-one] | > 1000 nM | > 1000 nM | > 1000 nM | > 1000 nM
COc1c(Cl)cccc1Nc1c(-c2ccncc2F)[nH]c2c1C(=O)NC[C@H]2CC(N)=O [Compound 489] | > 1000 nM | 100 to 1000 nM | 100 to 1000 nM | 100 to 1000 nM
COc1c(Cl)cccc1Nc1c(-c2ccnc(NC[C@H]3COCCO3)n2)[nH]c2c1C(=O)NCC2 [compound 723, 3-[(3-chloro-2-methoxyphenyl)amino]-2-(2-[[(2S)-1,4-dioxan-2-ylmethyl]amino]pyrimidin-4-yl)-1H,5H,6H,7H-pyrrolo[3,2-c]pyridin-4-one] | > 1000 nM | > 1000 nM | 100 to 1000 nM | > 1000 nM
COc1c(Cl)cccc1Nc1c(-c2ccncc2F)[nH]c2c1C(=O)NC[C@@H]2CC(N)=O [Compound 474] | > 1000 nM | > 1000 nM | > 1000 nM | > 1000 nM
COc1ncc2nccc(-c3[nH]c4c(c3Nc3cccc(Cl)c3F)C(=O)NCC4)c2n1 [Compound 799, 3-[(3-chloro-2-fluorophenyl)amino]-2-[2-methoxypyrido[3,2-d]pyrimidin-8-yl]-1H,5H,6H,7H-pyrrolo[3,2-c]pyridin-4-one] | 100 to 1000 nM | < 100 nM | < 100 nM | < 100 nM
C=CC(=O)N1CC[C@@]2(CNC(=O)c3c2[nH]c(-c2ccncc2F)c3Nc2cccc(Cl)c2OC)C1 [compound 521] | > 1000 nM | 100 to 1000 nM | 100 to 1000 nM | 100 to 1000 nM
COc1c(Cl)cccc1Nc1c(-c2ccnc3ccc(OC4CCOCC4)nc23)[nH]c2c1C(=O)NCC2 [compound 740, 3-[(3-chloro-2-methoxyphenyl)amino]-2-[6-(oxan-4-yloxy)-1,5-naphthyridin-4-yl]-1H,5H,6H,7H-pyrrolo[3,2-c]pyridin-4-one] | < 100 nM | < 100 nM | < 100 nM | < 100 nM
COc1c(F)cccc1Nc1c(-c2ccncc2F)[nH]c2c1C(=O)NCC2 [compound 418] | > 1000 nM | 100 to 1000 nM | 100 to 1000 nM | 100 to 1000 nM
COc1c(Cl)cccc1Nc1c(-c2ccncc2F)[nH]c2c1C(=O)NC[C@]21CCN(CC(F)(F)F)C1 [compound 818] | > 1000 nM | 100 to 1000 nM | 100 to 1000 nM | 100 to 1000 nM
COc1c(Cl)cccc1Nc1c(-c2ccnc3ccc(OCCN4CCOCC4)nc23)[nH]c2c1C(=O)NCC2 [compound 504, 3-[(3-chloro-2-methoxyphenyl)amino]-2-{6-[2-(morpholin-4-yl)ethoxy]-1,5-naphthyridin-4-yl}-1H,5H,6H,7H-pyrrolo[3,2-c] pyridin-4-one] | 100 to 1000 nM | < 100 nM | < 100 nM | 100 to 1000 nM
COc1c(Cl)cccc1Nc1c(-c2ccnc3ccc(OC4COC4)nc23)[nH]c2c1C(=O)NCC21CC1 [Compound 777, 3′-[(3-chloro-2-methoxyphenyl)amino]-2′-[6-(oxetan-3-yloxy)-1,5-naphthyridin-4-yl]-5′,6′-dihydro-1′H-spiro[cyclopropane-1,7′-pyrrolo[3,2-c]pyridin]-4′-one] | 100 to 1000 nM | < 100 nM | < 100 nM | < 100 nM
COc1ncc2nccc(-c3[nH]c4c(c3Nc3cccc(Cl)c3C)C(=O)NCC4)c2n1 [Compound 793, 3-[(3-chloro-2-methylphenyl)amino]-2-[2-methoxypyrido[3,2-d]pyrimidin-8-yl]-1H,5H,6H,7H-pyrrolo[3,2-c]pyridin-4-one] | 100 to 1000 nM | < 100 nM | < 100 nM | < 100 nM
COc1ncc2nccc(-c3[nH]c4c(c3Nc3cccc(F)c3CC(F)F)C(=O)NCC4)c2n1 [Compound 795, 3-{[2-(2,2-difluoroethyl)-3-fluorophenyl]amino}-2-{2-methoxypyrido[3,2-d]pyrimidin-8-yl}-1H,5H,6H,7H-pyrrolo[3,2-c]pyridin-4-one] | > 1000 nM | 100 to 1000 nM | 100 to 1000 nM | 100 to 1000 nM
COCC[C@@H]1CNC(=O)c2c1[nH]c(-c1ccnc(C)n1)c2Nc1cccc(Cl)c1OC [463a] | > 1000 nM | < 100 nM | 100 to 1000 nM | 100 to 1000 nM
COc1c(Cl)cccc1Nc1c(-c2ccnc3ccc(OC4CC4)nc23)[nH]c2c1C(=O)NCC2 [compound 677, 3-[(3-chloro-2-methoxyphenyl)amino]-2-(6-cyclopropoxy-1,5-naphthyridin-4-yl)-1H,5H,6H,7H-pyrrolo[3,2-c]pyridin-4-one] | < 100 nM | < 100 nM | < 100 nM | < 100 nM
COc1c(Cl)cccc1Nc1c(-c2ccnc(NCc3ccn(C)n3)n2)[nH]c2c1C(=O)NCC2 [Compound 709, 3-[(3-chloro-2-methoxyphenyl)amino]-2-(2-[[(1-methylpyrazol-3-yl)methyl]amino]pyrimidin-4-yl)-1H,5H,6H,7H-pyrrolo[3,2-c]pyridin-4-one] | 100 to 1000 nM | < 100 nM | < 100 nM | 100 to 1000 nM
COc1c(F)cccc1Nc1c(-c2ccnc3cnc(OC4COC4)nc23)[nH]c2c1C(=O)NCC2 [compound 440] | 100 to 1000 nM | < 100 nM | < 100 nM | < 100 nM
